The target in data set [1] is human cathepsin L (Homo sapiens, UniProt P07711). As to the kind of experiment: Assay of cathepsin L inhibitory activity in vitro. The data set is classed as biochemical. The following applies: IC50 against human cathepsin L; substrate Z-Phe-Arg-AMC 10 μM; 25° C.; read-out: Cat-L. As to the method: Assay Method of Cathepsin L Inhibitory Activity In Vitro
0.01 ng/μL was the final concentration of Cathepsin L in the enzyme reaction, and Z-Phe-Arg-AMC with the final concentration of 10 μM was added into the reaction system as substrate, in the reaction system the test compound and enzyme had been incubated at 25° C. for 15 min.

For data set [2], the target named is human cathepsin B (Homo sapiens, UniProt P07858). As to the kind of experiment: Assay of cathepsin B inhibitory activity in vitro. The data set is classed as biochemical. As to conditions: IC50 against human cathepsin B; substrate Z-Phe-Arg-AMC 10 μM; 25° C.; read-out: Cat-B. As to the method:
Assay Method of Cathepsin B Inhibitory Activity In Vitro
0.01 ng/μL was the final concentration of Cathepsin B in the enzyme reaction, and Z-Phe-Arg-AMC with the final concentration of 10 μM was added into the reaction system as substrate, in the reaction system the test compound and enzyme had been incubated at 25° C. for 15 min.

Data set [3] can be described thus: Pharmacokinetic test in SD rats (iv and oral gavage), plasma by LC/MS/MS. The data set is classed as in vivo. As to conditions: rat, male SD rats; for AUC(0-inf): read-out: AUCINF h * ng/ml; for AUC(0-t): read-out: AUClast h * ng/ml; for half-life: read-out: T1/2 h (converted); for Vd: read-out: Vss; for bioavailability: po 5 mg/kg vs iv 1 mg/kg. As to the method: Healthy adult male SD rats were divided into groups with administration of compound by intravenous injection and oral gavage.
2. Preparation of the Test Compound Solution:
A certain amount of the test compound was weighed, and then mixed with 5% DMSO, 10% Kolliphor HS15 and 85% Saline to prepare a clarified solution.
3. Administration and Sample Collection:
All groups were fasted for 12 hours before administering, free drinking, and fed at 3 hours after administration. Each group was administered with test compound by vein intravenous (iv, 1 mg/kg) in the hind foot and oral gavage (po, 5 mg/kg) independently. The blood samples were collected from tail vein at the time point of 0 h, 0.083 h, 0.25 h, 0.5 h, 1 h, 2 h, 4 h, 6 h, 8 h and 24 h after administration and the amount of blood sample collected at each time point was about 200-400 μL. The blood samples collected at each time point were independently placed in K2EDTA anticoagulation tube and preserved in the incubator containing ice packs. The plasma of each blood sample above was separated by centrifugation at 4600 r/min at 4° C. for 5 min in 15 minutes after collecting. The plasma samples were preserved at −80° C. for measuring.
The content of the compound in plasma of rat after administration was determined by LC/MS/MS method.

In data set [4] the target is human cathepsin S (Homo sapiens, UniProt P25774). As to the kind of experiment: Assay of cathepsin S inhibitory activity in vitro. Type of data set: biochemical. The following applies: IC50 against human cathepsin S; substrate Z-VVR-AMC 20 μM; 25° C.; read-out: Cat-S. The procedure: Assay Method of Cathepsin S Inhibitory Activity In Vitro
human cathepsin S, sequence (P25774 115-331): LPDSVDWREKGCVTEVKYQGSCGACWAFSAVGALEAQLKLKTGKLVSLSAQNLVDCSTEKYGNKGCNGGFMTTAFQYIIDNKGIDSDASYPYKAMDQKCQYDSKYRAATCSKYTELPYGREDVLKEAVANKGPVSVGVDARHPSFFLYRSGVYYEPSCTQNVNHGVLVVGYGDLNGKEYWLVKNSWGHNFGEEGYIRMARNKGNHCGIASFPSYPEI
0.25 ng/L was the final concentration of Cathepsin S in the enzyme reaction, and Z-VVR-AMC with the final concentration of 20 μM was added into the reaction system as substrate, in the reaction system the test compound and enzyme had been incubated at 25° C. for 15 min.

For data set [5], the target named is T1, human cathepsin K (Homo sapiens, UniProt P43235).
T1 sequence (P43235 115-329): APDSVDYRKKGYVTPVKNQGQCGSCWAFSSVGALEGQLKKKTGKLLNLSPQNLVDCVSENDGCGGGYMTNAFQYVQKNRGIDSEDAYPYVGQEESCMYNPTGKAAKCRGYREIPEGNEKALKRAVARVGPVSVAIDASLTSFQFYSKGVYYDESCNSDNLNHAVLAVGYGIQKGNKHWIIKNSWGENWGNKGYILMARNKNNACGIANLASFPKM
As to the kind of experiment: Assay of cathepsin K inhibitory activity in vitro. The data set is classed as biochemical. As to conditions: IC50 against human cathepsin K; substrate Z-Phe-Arg-AMC 10 μM; 25° C.; read-out: Cat-K. As to the method: Assay Method of Cathepsin K Inhibitory Activity In Vitro
Using 45000-fold diluted cathepsin K solution and 10 μM Z-Phe-Arg-AMC as substrate, the test compound and cathepsin K solution were incubated at 25° C. for 15 min in a 15 μL reaction system according to the optimized experimental condition.

The record followed here is patent publication US10494364B2, “Cathepsin K inhibitors and application thereof” (SUNSHINE LAKE PHARMA CO., LTD., priority 2015, dated 2019).

Structures are written as SMILES. Like-named read-outs stand apart in the source and are kept apart here.

human cathepsin L, sequence (P07711 114-333): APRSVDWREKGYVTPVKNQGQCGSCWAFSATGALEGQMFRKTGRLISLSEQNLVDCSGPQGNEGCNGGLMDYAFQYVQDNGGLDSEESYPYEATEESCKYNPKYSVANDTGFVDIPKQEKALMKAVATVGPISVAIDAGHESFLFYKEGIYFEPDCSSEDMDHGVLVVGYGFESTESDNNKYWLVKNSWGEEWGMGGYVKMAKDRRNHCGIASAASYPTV

The Cmax is the maximum level reached in the sampled fluid or tissue. For orientation: Tmax means the time at which the peak concentration occurs. The bioavailability is dose-corrected exposure relative to a reference, in per cent. Low readings indicate little systemic uptake, high ones much systemic uptake. In the case of `N#CC1(NC(=O)C2(NC(=O)c3cc4ccc(-c5ccc(-n6cncn6)cc5)cc4o3)CCC(F)(F)CC2)CC1` [Example 12, 6-(4-(1H-1,2,4-triazol-1-yl)phenyl)-N-(1-((1-cyanocyclopropyl)carbamoyl)-4,4-difluorocyclohexyl)benzofuran-2-carboxamide], the IC50 in data set [1] was over 10000 nM. Also, the IC50 in data set [2] came to 1400 nM. Also, in data set [3] (iv 1 mg/kg), the Cmax was 1110 ng/mL, the Tmax came to 0.08 h, the clearance stood at 1.8 mL/min/kg and the AUC(0-inf) was determined as 9230 ng·h/mL. For the same compound, in data set [3] (iv 1 mg/kg), the AUC(0-t) was 8150 ng·h/mL, the half-life is 7.84 h and the Vd was 1.09 L/kg. Further, in data set [3] (po 5 mg/kg), the Cmax stood at 1890 ng/mL, the Tmax was determined as 4.67 h, the AUC(0-inf) came to 28400 ng·h/mL and the AUC(0-t) was 25100 ng·h/mL. The half-life in data set [3] (po 5 mg/kg) is 6.14 h. Besides, in data set [3], the bioavailability stood at 60.6%. Also, the IC50 in data set [4] was 2500 nM. In addition, the IC50 in data set [5] turned out to be 1.8 nM.
For the compound `N#CC1(NC(=O)C2(NC(=O)c3cc4ccc(-c5ccc(-n6ccnn6)cc5)cc4o3)CCC(F)(F)CC2)CC1` [Example 18, 6-(4-(1H-1,2,3-triazol-1-yl)phenyl)-N-(1-((1-cyanocyclopropyl)carbamoyl)-4,4-difluorocyclohexyl)benzofuran-2-carboxamide], in data set [1], the IC50 is over 10000 nM. Further, the IC50 in data set [2] stood at 806 nM. Moreover, in data set [3] (iv 1 mg/kg), the Cmax is 500 ng/mL, the Tmax was found to be 0.083 h, the clearance came out at 5.14 mL/min/kg and the AUC(0-inf) amounted to 3320 ng·h/mL. In data set [3] (iv 1 mg/kg), the AUC(0-t) is 3210 ng·h/mL, the half-life was 4.72 h and the Vd turned out to be 1.92 L/kg. For the same compound, in data set [3] (po 5 mg/kg), the Cmax stood at 1380 ng/mL, the Tmax came to 3.33 h, the AUC(0-inf) came out at 19900 ng·h/mL and the AUC(0-t) worked out at 18600 ng·h/mL. The half-life in data set [3] (po 5 mg/kg) was 5.65 h. Moreover, the bioavailability in data set [3] is 98.6%. Besides, the IC50 in data set [4] was found to be 2800 nM. The IC50 in data set [5] turned out to be 2.2 nM.
As for `Cc1cc(-c2ccc3cc(C(=O)NC4(C(=O)NC5(C#N)CC5)CCC(F)(F)CC4)oc3c2)ccc1-n1cncn1` [Example 43, N-(1-((1-cyanocyclopropyl)carbamoyl)-4,4-difluorocyclohexyl)-6-(3-methyl-4-(1H-1,2,4-triazol-1-yl)phenyl)benzofuran-2-carboxamide], the IC50 in data set [1] is over 10000 nM. Also, the IC50 in data set [2] is 440 nM. Besides, in data set [3] (iv 1 mg/kg), the Cmax stood at 382 ng/mL, the Tmax was found to be 0.78 h, the clearance worked out at 4.13 mL/min/kg and the AUC(0-inf) turned out to be 4190 ng·h/mL. Further, in data set [3] (iv 1 mg/kg), the AUC(0-t) was found to be 3800 ng·h/mL, the half-life is 7.1 h and the Vd was 2.27 L/kg. Further, in data set [3] (po 5 mg/kg), the peak level (Cmax) was 390 ng/mL, the Tmax was 4 h, the AUC(0-inf) was determined as 15200 ng·h/mL and the AUC(0-t) amounted to 14300 ng·h/mL. For the same compound, in data set [3] (po 5 mg/kg), the half-life is 5.84 h. The same compound returned a bioavailability in data set [3] of 72.1%. Moreover, the IC50 in data set [4] was 1340 nM. In addition, the IC50 in data set [5] is 0.69 nM.
As to `N#CC1(NC(=O)C2(NC(=O)c3cc4ccc(-c5ccc(-n6cncn6)c(OC(F)F)c5)cc4o3)CCC(F)(F)CC2)CC1` [Example 53, N-(1-((1-cyanocyclopropyl)carbamoyl)-4,4-difluorocyclohexyl)-6-(3-(difluoromethoxy)-4-(1H-1,2,4-triazol-1-yl)phenyl)benzofuran-2-carboxamide], in data set [1], the IC50 is over 10000 nM. Moreover, in data set [2], the IC50 amounted to 2500 nM. Also, in data set [3] (iv 1 mg/kg), the concentration peaked (Cmax) at 798 ng/mL, the Tmax amounted to 0.083 h, the clearance stood at 2.91 mL/min/kg and the AUC(0-inf) stood at 5740 ng·h/mL. In data set [3] (iv 1 mg/kg), the AUC(0-t) worked out at 5470 ng·h/mL, the half-life was 5.9 h and the Vd was found to be 1.2 L/kg. Further, in data set [3] (po 5 mg/kg), the Cmax was 2230 ng/mL, the Tmax is 2.67 h, the AUC(0-inf) came out at 21700 ng·h/mL and the AUC(0-t) was found to be 21100 ng·h/mL. In data set [3] (po 5 mg/kg), the half-life was 4.66 h. The bioavailability in data set [3] amounted to 75.6%. Further, the IC50 in data set [4] is over 10000 nM. Moreover, the IC50 in data set [5] was determined as 1.4 nM.
As to `N#CC1(NC(=O)C2(NC(=O)c3cc4ccc(-c5ccc(C6CCS(=O)(=O)CC6)cc5)cc4o3)CCC(F)(F)CC2)CC1` [Example 86], the IC50 was over 10000 nM in data set [1], 6800 nM in data set [2], 4700 nM in data set [4] and 1.1 nM in data set [5].
With `N#CC1(NC(=O)C2(NC(=O)c3cc4ccc(-c5ccc(N6CCNC6=O)cc5)cc4o3)CCC(F)(F)CC2)CC1` [Example 88], the IC50 in data set [1] is over 10000 nM; in data set [2] it was 800 nM; in data set [4] it was 2900 nM; in data set [5], 5.4 nM.
The matching figures for `N#CC1(NC(=O)C2(NC(=O)c3cc4ccc(-c5ccc(C(O)C(N)=O)cc5)cc4o3)CCC(F)(F)CC2)CC1` (centres unmarked) [Example 90]: over 10000 nM, 1200 nM, 170 nM and 1.5 nM.
In the case of `N#CC1(NC(=O)C2(NC(=O)c3cc4ccc(-c5ccc6c(c5)OCO6)cc4o3)CCC(F)(F)CC2)CC1` [Example 91], the IC50 was over 10000 nM in data set [1], 2500 nM in data set [2], over 10000 nM in data set [4] and 1.3 nM in data set [5].
As to `N#CC1(NC(=O)C2(NC(=O)c3cc4ccc(-c5ccc(C(=O)N6CCOCC6)cc5)cc4o3)CCC(F)(F)CC2)CC1` [Example 92], the IC50 in data set [1] is over 10000 nM; in data set [2], 6400 nM; in data set [4], 2300 nM; in data set [5] it was 1.4 nM.
For the compound `CC1(COc2ccc(-c3ccc4cc(C(=O)NC5(C(=O)NC6(C#N)CC6)CCC(F)(F)CC5)oc4c3)cc2)COC1` [Example 93], the IC50 in data set [1] was over 10000 nM; in data set [2], 4300 nM; in data set [4] it was over 10000 nM; in data set [5], 2.96 nM.
`COc1cc(-c2ccc3cc(C(=O)NC4(C(=O)NC5(C#N)CC5)CCC(F)(F)CC4)oc3c2)ccc1OC(F)F` [Example 94]: the IC50 in data set [1] was over 10000 nM; in data set [2], 4000 nM; in data set [4], 6500 nM; in data set [5], 2.4 nM.
The like results for `CS(=O)(=O)Nc1ccc(-c2ccc3cc(C(=O)NC4(C(=O)NC5(C#N)CC5)CCC(F)(F)CC4)oc3c2)cc1` [Example 96] were, in that order, over 10000 nM, 711 nM, 2150 nM and 0.53 nM.
Take `COc1cc(-c2ccc3cc(C(=O)NC4(C(=O)NC5(C#N)CC5)CCC(F)(F)CC4)oc3c2)ccc1S(C)(=O)=O` [Example 97]: the IC50 in data set [1] is over 10000 nM; in data set [2], 355 nM; in data set [4], 2290 nM; in data set [5], 1.37 nM.
